Reference: patent US11339203B2, “Antitumor peptide and use thereof” (TOAGOSEI CO., LTD., priority 2018, dated 2022)
Read-outs that look alike come from different tables or passages of the source. Where no end group is shown, it is not given here.

Assays:
[1] = system: human kidney cancer cell line (CAKI2); type: cell-based; conditions: human, 48 h
Procedure: The antitumor activity of each sample peptide synthesized in above-mentioned Test Example 1 was evaluated targeted in human-derived cultured tumor cells. More specifically, a human kidney cancer cell line (CAKI2) that is currently commercially available was used for the test tumor cells. CAKI2 cells were cultured and adjusted to cell count of about 5×10^3 cells per single well of 96-well plate. The amount of medium at this time was made to be 100 μL per well. Next, the 96-well plate was arranged in a CO2 incubator and incubated for about 1 day (21 hours to 24 hours) under conditions of 37° C. and 5% CO2. Subsequently, peptide-containing test media were respectively prepared for each concentration so that the concentration of each sample peptide targeted for evaluation was 12.5 μM and 25 μM followed by supplying to the wells in which the cells targeted for evaluation were cultured (namely, the wells following the above-mentioned incubation) so that the amount of media was 90 μL per well. The 96-well plate was then returned to CO2 incubator followed by incubating for 48 hours under conditions of 37° C. and 5% CO2. The number of wells (n) at each concentration in each peptide addition test group was set to 3. Thus, the values of the results indicated in the following table are the average values of the results respectively obtained for 3 test wells. Cell viability (%) was determined in the manner described below. Following completion of incubation for 48 hours as described above, the medium in each well was replaced with 100 μL of fresh medium not containing peptide followed by further adding a reagent for measuring cell proliferation in the form of “Cell Counting Kit-8” (Dojindo Laboratories) containing “water-soluble tetrazolium salt (WST-8)” as a coloring reagent at 10 μL per well. Subsequently, the 96-well plate was again returned to CO2 incubator and incubated for 1.5 hours to 2 hours under conditions of 37° C. and 5% CO2. Following completion of incubation, cell viability (%) was evaluated using a colorimetric method consisting of recovering the cell culture liquid containing the above-mentioned reagent together with measuring absorbance at wavelength of 450 nm based on reduction of tetrazolium salt (value corrected for absorbance at a wavelength of 650 nm: A450 to A650). More specifically, the cell viability (%) of each test cell line was calculated from the measured absorbance as a relative value based on cell viability of 100% for the measured value (measured absorbance) of the comparison test group that underwent incubation for 48 hours as described above in only medium not containing peptide. McCoy's 5A medium (Gibco) containing 2 mM L-glutamine, 3,000 mg/L of glucose, 100 units/mL of penicillin, 100 μg/mL of streptomycin and 10% fetal bovine serum (FBS).

[2] = system: tumor cells; assay: Antitumor activity of the TM2-TAT peptide (data not shown); type: cell-based; conditions: detailed data not shown

**Q.** “WFLREGSMFVALSASVFSLLAIKKRTLRKNDRKKR-NH2 [Sample 3]” was tested. Which “Cell Viability (%)” value ([1]; 12.5 μM) did it give?
**A.** 68%

**Q.** What about the “Cell Viability (%)” value ([1]; 25 μM) of the same compound?
**A.** 45.8%

**Q.** How did the “Cell Viability (%)” value ([1]; 12.5 μM) turn out when “LFRAEYFLVLAVLNSGTNPIIKKRTLRKNDRKKR-NH2 [Sample 7]” was run?
**A.** 98.9%

**Q.** And the “Cell Viability (%)” value ([1]; 25 μM)?
**A.** 66.3%

**Q.** With “FLLISACWVISLILGGLPIMGWKKRTLRKNDRKKR-NH2 [Sample 4]” as the compound, how does the “Cell Viability (%)” value ([1]; 12.5 μM) read?
**A.** 70.6%

**Q.** What about the “Cell Viability (%)” value ([1]; 25 μM) of the same compound?
**A.** 85.6%

**Q.** What does the source list for `CC[C@H](C)[C@H](NC(=O)[C@H](CCCNC(=N)N)NC(=O)[C@H](CS)NC(=O)[C@H](Cc1ccc(O)cc1)NC(=O)[C@H](CC(C)C)NC(=O)[C@@H](NC(=O)[C@@H](NC(=O)[C@@H](NC(=O)[C@H](CO)NC(=O)[C@H](CC(C)C)NC(=O)[C@H](CC(C)C)NC(=O)[C@H](CC(C)C)NC(=O)[C@H](CC(C)C)NC(=O)[C@@H](NC(=O)[C@H](Cc1ccccc1)NC(=O)[C@@H](NC(=O)[C@@H](NC(=O)[C@@H](NC(=O)[C@H](CS)NC(=O)[C@H](Cc1ccccc1)NC(=O)[C@H](CC(C)C)NC(=O)[C@@H](NC(=O)[C@H](Cc1ccc(O)cc1)NC(=O)[C@H](Cc1c[nH]cn1)NC(=O)[C@H](CCCCN)NC(=O)[C@H](Cc1c[nH]cn1)NC(=O)[C@H](Cc1ccc(O)cc1)NC(=O)[C@@H](N)CC(C)C)[C@@H](C)CC)[C@@H](C)O)[C@@H](C)O)C(C)C)[C@@H](C)O)[C@@H](C)CC)C(C)C)[C@@H](C)CC)C(=O)N[C@@H](CCCCN)C(=O)N[C@@H](CCCCN)C(=O)N[C@@H](CCCNC(=N)N)C(=O)N[C@H](C(=O)N[C@@H](CC(C)C)C(=O)N[C@@H](CCCNC(=N)N)C(=O)N[C@@H](CCCCN)C(=O)N[C@@H](CC(N)=O)C(=O)N[C@@H](CC(=O)O)C(=O)N[C@@H](CCCNC(=N)N)C(=O)N[C@@H](CCCCN)C(=O)N[C@@H](CCCCN)C(=O)N[C@@H](CCCNC(=N)N)C(N)=O)[C@@H](C)O` [Sample 5]?
**A.** Cell Viability (%) ([1]; 12.5 μM): 73.3%; Cell Viability (%) ([1]; 25 μM): 77.6%

**Q.** For “SEQ ID NO: 33: synthetic peptide binding SEQ ID NO: 23 (TAT sequence of HIV) to the C-terminal side of SEQ ID NO: 2 (S1PR1 second TM region) (FIGNLALSDLLAGVAYTANLLLRKKRRQRRR)”, which antitumor activity [2] is on record?
**A.** demonstrated antitumor activity

**Q.** For “VIIVLSVFIACWAPLFILLLLKKRTLRKNDRKKR-NH2 [Sample 6]”, which “Cell Viability (%)” value ([1]; 12.5 μM) is on record?
**A.** 69.3%

**Q.** What about the “Cell Viability (%)” value ([1]; 25 μM) of the same compound?
**A.** 59.7%
